Assay results reported in patent US20250076320A1, “METHOD AND PROGRAM FOR DETECTING ADMINISTERED DRUG, AND DEVICE THEREFOR” (A&T CORPORATION, priority 2023, published 2025).

Tested on: prothrombin time (blood coagulation, extrinsic pathway)
Assay: Clot waveform analysis with dry PT reagent containing magnetic particles on the CG02N blood coagulation analyzer
Conditions: samples receiving administration of rivaroxaban, PT-INR 2.0 or higher (22 samples); inclination from maximal movement level of magnetic particles to 5% attenuation; 25 μl sample; samples not receiving DOAC: −1219.8
Source text: When measurement is initiated, apparatus CG02N turns electromagnets at the bottom of the reaction cell on and off, and allows magnetic particles to move in the reaction cell. CG02N observes the movement of the magnetic particles as the amount of change in the scattered light, and analyzes the change with the elapse of time to determine clotting time. When the CG02N analyzer is used, the change in the movement signal of the magnetic particles over time is inversely correlated to the change in the viscosity of the dry reagent. As the clotting reaction advances, the viscosity in the reaction cell increases, and the movement of the magnetic particles becomes slower. The clot waveform is analyzed by determining a difference between the waveform value (scattered light) after a given period of time from the point when an electromagnet is turned on and the waveform value (scattered light) after a given period of time from the point when electromagnet is turned off. Differences in the waveform values are plotted with the elapse of time, and a point at which the waveform value is lowered by a given percentage from the maximal value (also referred to as “peak TOP”) is designated as the end point. The period from the peak TOP to the end point is measured to obtain the measured value (seconds). The term “clotting time” used herein refers to the period from the peak TOP to the end point. […]

In the case of `O=C(NC[C@H]1CN(c2ccc(N3CCOCC3=O)cc2)C(=O)O1)c1ccc(Cl)s1` [rivaroxaban], the “Slope of clot waveform, Mean” value is reported as −805.9.
